Measured values from article PMC4871512, “Drug-Based Lead Discovery: The Novel Ablative Antiretroviral Profile of Deferiprone in HIV-1-Infected Cells and in HIV-Infected Treatment-Naive Subjects of a Double-Blind, Placebo-Controlled, Randomized Exploratory Trial” (PLoS ONE, 2016).
Where two headings read alike, the source gives them in different places.

How the values were obtained:
[1] = Proof-of-concept trial: entry PK study, deferiprone in serum after the first oral dose; type: in vivo, human; conditions: for Cmax: human, serum
Description: Eligible for enrollment were volunteers of both genders, between 18 and 60 years old, healthy or HIV-infected with CD4 count ≥ 300/mm^3, viral load of ≥ 10,000 copies/ml, and absence of active infectious disease; AIDS-defining condition; febrile illness; liver or kidney disease; hypersensitivity to test material; and medication requirement. The protocol involved a screening visit; a pharmacokinetic and antiretroviral study requiring admission to a specialized Phase I research unit for a week of on-drug treatment, with multiple blood draws from a peripheral vein after oral intake of the first deferiprone dose, […], and at least three repeat blood draws (first stage of protocol); an off-drug observation period of eight weeks, which comprised at least two repeat visits (second stage of protocol); and an exit visit. Enrollment complied with the applicable standard-of-care specified in the ‘Clinical Guidelines for the Management of HIV & AIDS in Adults and Adolescents’, National Department of Health, Republic of South Africa. Primary parameters included safety and tolerability (e.g. vital signs, laboratory variables, cardiac monitoring by ECG) and antiretroviral activity (e.g. RNA copies of HIV-1). Secondary parameters included pharmacokinetic variables (e.g. peak serum concentration) in serum, drawn from a peripheral vein at fixed times (0, 0.5, 1, 1.5, 2, 3, 4, 6, 9, 12) after the ingestion of the first dose on Day 1 of the study. The concentration of the nonconjugated, chelation-competent form of deferiprone in serum was determined by UV detection at 280 nm, after separation via reversed-phase HPLC under isocratic conditions. The lower limit of deferiprone quantitation was 1.466 μM, or 0.204 μg/ml. HIV-1 RNA was measured as described and used as log10-transformed parameter in all calculations.

[2] = Proof-of-concept trial: safety and tolerability
Protocol: Since we were dosing a population with previously untested tolerance for deferiprone, the exploratory trial of this orally administered drug was conducted under uninterrupted medical observation and standardized conditions, e.g. uniform diet to minimize confounding food effects, in a specialized in-patient research unit for Phase I protocols. In-unit supervision lasted for the entire one-week duration of deferiprone ingestion (first stage of protocol S1 in Fig 6), which was intentionally restricted to the oral intake of in total just 17 doses. After discharge from the research unit, outpatient follow-up occurred at 4 weeks and 8 weeks (second stage of protocol S2 in Fig 6). […] Using drug toxicity grading criteria proposed by NIH [97, 98], we defined the following tolerability profile:
Eligible for enrollment were volunteers of both genders, between 18 and 60 years old, healthy or HIV-infected with CD4 count ≥ 300/mm^3, viral load of ≥ 10,000 copies/ml, and absence of active infectious disease; AIDS-defining condition; febrile illness; liver or kidney disease; hypersensitivity to test material; and medication requirement. The protocol involved a screening visit; a pharmacokinetic and antiretroviral study requiring admission to a specialized Phase I research unit for a week of on-drug treatment, with multiple blood draws from a peripheral vein after oral intake of the first deferiprone dose, either 33 mg/kg or 50 mg/kg, and at least three repeat blood draws (first stage of protocol); an off-drug observation period of eight weeks, which comprised at least two repeat visits (second stage of protocol); and an exit visit. Enrollment complied with the applicable standard-of-care specified in the ‘Clinical Guidelines for the Management of HIV & AIDS in Adults and Adolescents’, National Department of Health, Republic of South Africa. Primary parameters included safety and tolerability (e.g. vital signs, laboratory variables, cardiac monitoring by ECG) and antiretroviral activity (e.g. RNA copies of HIV-1). Secondary parameters included pharmacokinetic variables (e.g. peak serum concentration) in serum, drawn from a peripheral vein at fixed times (0, 0.5, 1, 1.5, 2, 3, 4, 6, 9, 12) after the ingestion of the first dose on Day 1 of the study. The concentration of the nonconjugated, chelation-competent form of deferiprone in serum was determined by UV detection at 280 nm, after separation via reversed-phase HPLC under isocratic conditions. The lower limit of deferiprone quantitation was 1.466 μM, or 0.204 μg/ml. HIV-1 RNA was measured as described and used as log10-transformed parameter in all calculations.
26 consecutive subjects were randomly enrolled in the IRB-approved proof-of-concept trial and gave written informed consent to be studied (Supporting Information, S2 Text); recruitment of trial subjects commenced in November 2006 and follow-up terminated in April 2008. Double-blind enrollment comprised i) 18 HIV-infected, asymptomatic and—according to the applicable standard-of-care [74]–cART-ineligible individuals, who either received placebo (N = 4 [Protocol Group 4]) or deferiprone (Ferriprox®) administered orally every 8 hours in three equal doses under medical supervision, totaling initially either 99 mg/kg/day (N = 7 [Protocol Group 1]) or subsequently 150 mg/kg/day (N = 7 [Protocol Group 3]); and ii) 8 uninfected individuals either on placebo (N = 2 [Protocol Group 5]) or daily deferiprone (N = 6; 150 mg/kg/day [Protocol Group 2]); CD4 cells were quantified before, during, and at the end of the one-week treatment period. […] Visually identical tablets of deferiprone / placebo were administered once on Days 1 and 7, and thrice on Days 2–6 of protocol.

[3] = system: HIV-infected cell lines and HIV-infected primary cells; conditions: cited from earlier work
[4] = human, in vivo; cited from earlier work

SMILES: Cc1c(O)c(=O)ccn1C [deferiprone, 3-hydroxy-1,2-dimethylpyridin-4-one]
- subjects with serum cmax concentrations above the threshold (150 μM) ([1]; 99 mg group): 4 of 7
- subjects with serum cmax concentrations above the threshold (150 μM) ([1]; 150 mg group): 3 of 4
- Cmax ([1]; both sexes, oral, approximation from pharmacokinetic, viral load and tolerability findings, read-out: serum cmax an effective and tolerable regimen may have to achieve): 150 to 275 µM
- Cmax ([1]; both sexes, po, 33 mg/kg, 99 mg group, first oral dose 33 mg/kg, read-out: cmax, range within group): 53 to 314 µM
- Cmax ([1]; both sexes, po, 50 mg/kg, 150 mg group, first oral dose 50 mg/kg, read-out: cmax, range within group): 128 to 285 µM
- Cmax ([1]; oral, 99 mg, Subject 2, 99 mg group, read-out: cmax): 314 µM
- Cmax ([1]; oral, 150 mg, Subject 19, 150 mg group, read-out: cmax): 128 µM
- Cmax ([1]; oral, 150 mg, Subject 22, 150 mg group, read-out: cmax): 285 µM
- enrollees who completed the study ([2]; 99 mg group): 86%
- persons with elevations of transaminases and γ-glutamyl transpeptidase ([2]; 99 mg group, N = 7 HIV-infected, end of the treatment week): 2
- grade of transaminase elevations ([2]; 99 mg group, the 2 affected persons): Grade 3 and Grade 2
- grade of γ-glutamyl transpeptidase elevations ([2]; 99 mg group, the 2 affected persons, respectively): Grade 1 and Grade 2
- enrollees who completed the study ([2]; 150 mg group overall, N = 13): 61%
- persons with a rise in serum liver enzymes ([2]; 150 mg group, HIV-uninfected): 2 of 6
- hematologic adverse event ([2]; 150 mg group, Subject 22 (cmax 285 μM), medication discontinued on Day 3): agranulocytosis (Grade 4 absolute neutrophil count)
- grade of γ-glutamyl transpeptidase elevation ([2]; 150 mg group, Subject 22 and Subject 24): Grade 2
- persons with a rise in serum liver enzymes ([2]; 150 mg group, asymptomatic HIV-infected): 4 of 7
- grade of transaminase elevations ([2]; 150 mg group, the four affected HIV-infected persons): three Grade 2 and one Grade 4
- protocol completion ([2]; 150 mg group, those with HIV infection): 57%
- rise in serum liver enzymes, grade ([2]; HIV-uninfected persons on 150 mg/day, Subject 9 and Subject 12): Grade 1 transaminase elevation
- spontaneous correction of the neutrophil count ([2]; Subject 22): within two weeks off-drug
- spontaneous correction of the liver function abnormality ([2]; Subject 22 and Subject 24): within one week off-drug
- heart rate-corrected QT interval on-drug ([2]; Subject 317, 150 mg group, Grade 2 QTc prolongation): 491 ms
- increase of heart rate-corrected QT interval ([2]; Subject 317, 150 mg group, baseline 441 ms, first stage, judged likely not causally linked): 50 ms
- off-drug rate-corrected QT interval ([2]; Subject 317, several days after the end of drug intake): up to 488 ms
- effect of dose increase on tolerability ([2]; in vivo): markedly reduced the tolerability
- neurological adverse event ([2]; one HIV-uninfected person, at 6 and 8 days after the end of deferiprone treatment): convulsive episodes
- HIV-1 inhibition in chronically infected cell lines ([3]; 200 μM deferiprone): near-maximal HIV-1 inhibition
- ribosomal presence of gag mRNA, amount of intra- and extracellular p24, budding of viral particles ([3]; treated HIV-infected cells): suppress
- Abdominal pain/discomfort, patients affected [4]: 10.4%
- Alanine aminotransferase increased, patients affected [4]: 7.5%
- Arthralgia, patients affected [4]: 9.8%
- Headache, patients affected [4]: 2.5%
- Nausea, patients affected [4]: 12.6%
- Neutropenia (neutrophils < 1.5 x 10^9/L and > 0.5 x 10^9/L), patients affected [4]: 6.2%
- Vomiting, patients affected [4]: 9.8%
- agranulocytosis (absolute neutrophil count less than 0.5 × 10^9/L), patients affected [4]: 1.7%
